Reference: patent US20050148534A1, “Small molecule compositions and methods for increasing drug efficiency using compositions thereof” (priority 2003, published 2005)
Where two headings read alike, the source gives them in different places.

Experiments:
tubulin = experiment: Fluorescence-based microtubule polymerization assay (MPA); format: biochemical; conditions: mean percentage of paclitaxel or vinblastine activity; 0.75-10 micromolar
Procedure, shortened: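 Tubulin polymerization was followed by fluorescence (ex 360/em 405 nm) in a commercial kit with 1 mg/ml BSA added to every assay, glycerol being omitted for paclitaxel conjugates. Parent drugs and conjugates were tested at 0.75, 1.5, 3 and 10 micromolar final. Curves from the linear range of the dose responses were compared.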

MCF-7 breast carcinoma [1] = experiment: Cytotoxicity assay (monolayer), MCF-7; format: cell-based; conditions: Homo sapiens, MCF7
Description: (§1) Statistical Assoc., 81, 991-999, 1986.
(§2) Monolayer assays with tumor cell lines (MCF-7 breast carcinoma and HT-29 colorectal carcinoma from ATCC) were carried out in triplicate in 96-well plates with RPMI1640 medium containing 5% fetal bovine serum, 100 U/ml penicillin and 100 μg/ml streptomycin. Normal human foreskin fibroblasts (HFF #CC-2509) were from Cambrex and were cultured in FGM-2 medium. Exponentially growing cells (5,000 MCF-7 or HT-29; 1,500 HFF) were plated in 100 μl medium and incubated overnight (5% CO2, 37° C.). Compounds (20 pM to 20 μM final concentration, 6-8 doses) and vehicle (DMSO) controls were added and the incubation was continued for an additional 72 hours. Final cell density was determined by incubating cultures with 25 μl AlamarBlue reagent (BioSource, Camarillo, Calif.) for 4 hours, followed by determination of fluorescence at excitation of 544 nm and emission of 590 nm with a SpectroMax Gemini EM fluorescence plate reader (Molecular Devices, Sunnyvale, Calif.). EC50 values were generated from dose-response curves by a 4-parameter method using Softmax PRO software. Mean EC50s (±SD) represent the average of all tests carried out for all lots of a given compound. […] Statistical Assoc., 81, 991-999 (1986).

[2] = tested on: HT-29 colorectal carcinoma; experiment: Cytotoxicity assay (monolayer), HT-29; format: cell-based; conditions: Homo sapiens
Description: as §1, §2

HUVEC = experiment: Cytotoxicity assay (monolayer), HUVEC; format: cell-based; conditions: Homo sapiens, read-out: HUVEC (EC50 Ave) ML
[3] = tested on: Normal human foreskin fibroblasts (HFF); experiment: Cytotoxicity assay (monolayer), HFF; format: cell-based; conditions: Fibroblast
Description: as §1, §2

MCF7 = experiment: Cytotoxicity assay, MCF7 SSA (SSA not explained); format: cell-based; conditions: Homo sapiens
HT29 = experiment: Cytotoxicity assay, HT29 SSA (SSA not explained); format: cell-based; conditions: Homo sapiens, HT-29; read-out: HT29 (EC50 Ave) SSA
MCF-7 breast carcinoma [4] = experiment: Cytotoxicity assay (soft agar), MCF-7; conditions: Homo sapiens
[5] = tested on: HT-29 colorectal carcinoma; experiment: Cytotoxicity assay (soft agar), HT-29; conditions: Homo sapiens
[6] = molecular target: T1, Human thymidine kinase 1 (TK1) (Homo sapiens, UniProt P04183); experiment: Thymidine kinase coupled (kinetic) ATP depletion assay; format: biochemical; conditions: initial velocity relative to thymidine; 100 μM conjugate
T1 construct: His tag (from pET28b(+)) (N); made in house; host or cells: E. coli BL21-codon plus
T1 sequence (P04183 1-234): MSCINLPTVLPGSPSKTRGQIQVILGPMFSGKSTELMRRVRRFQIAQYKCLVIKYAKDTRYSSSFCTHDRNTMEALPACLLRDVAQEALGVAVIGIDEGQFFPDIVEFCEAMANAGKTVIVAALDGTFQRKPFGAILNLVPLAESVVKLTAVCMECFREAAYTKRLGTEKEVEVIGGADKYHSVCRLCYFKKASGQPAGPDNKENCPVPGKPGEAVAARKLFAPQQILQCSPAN
Description: Thymidine kinase, viral thymidine kinase, TK-1 deoxycytidine kinase, and deoxyguanosine kinase activities are determined by subjecting a first end of a linker used in synthesizing linker-substrate constructs to a first test. The first test may involve observing ADP formation, an obligatory co-product of phospho group transfer from ATP which is catalyzed by the kinase to the C5′ hydroxyl group or its equivalent in the nucleoside or nucleoside analog. Formation of ADP is followed by a coupled enzyme assay well known in the art. ADP, formed from kinase phosphorylation, is used by pyruvate kinase to generate pyruvate from phosphoenolpyruvate which in turn is converted to lactate by lactate dehydrogenase. The lactate results in the consumption of NADH which is followed spectrophotometrically. The rate of nucleoside phosphorylation is then directly related to the rate of decrease in the observed NADH signal.
TK1 was amplified using PCR with forward primer 5′-[…]-3′ and reverse primer 5′-[…]-3′. The PCR product was digested with Nde I and Hind III. An N-terminal His-tagged TK1 construct, TK1/pET28b(+), was generated by subcloning TK1 into the Nde I and Hind III sites of prokaryotic expression vector pET28b (+) (Novagen, San Diego, Calif.). TK1 was expressed from TK1/pET28b(+) using E. coli strain BL21-codon plus (Stratagene, San Diego, Calif.) and purified by Ni column chromatography.
A coupled (kinetic) ATP depletion assay was developed to measure thymidine kinase activity. The reaction contained 100 mM Tris HCl, pH 7.5, 20 mM MgCl2, 100 mM KCl, 0.4 mM PEP, 0.2 mM NADH, Pyruvate Kinase (0.7 units)/Lactate Dehydrogenase (1.0 unit) (Sigma #PO294), 2.5-10 μg Thymidine Kinase, 100 μM thymidine or thymidine-drug conjugate in a volume of 75 μl. ATP (5 mM in 25 μl H2O) was added to initiate the reaction and the velocity of ATP depletion was monitored at 340 nm continuously for 15 minutes.

[7] = tested on: breast carcinoma, colon carcinoma and leukemia; experiment: Cytotoxicity of drug-thymidine conjugates (Example 22); format: cell-based
Topoisomerase II = molecular target: T2, Topoisomerase II (Homo sapiens, UniProt P11388); experiment: Topoisomerase II assay; format: biochemical; conditions: doxorubicin and its conjugates; percent activity of Doxorubicin
T2 construct: purchased TopoGEN Inc. (Columbus, Ohio) 1009-1
Description: In certain embodiments, activity of doxorubicin conjugates was assayed by monitoring alteration in the ability of Topoisomerase II, by electrophoresis, to catalyze the formation of relaxed conformation DNA from a super-coiled plasmid.
Specifically the kit was used to assay whether Doxorubicin conjugates altered the ability of Topoisomerase II to catalyze the formation of relaxed conformation DNA from a super-coiled plasmid. Doxorubicin conjugates were compared directly to Doxorubicin at 10, 3, 1, 0.3, 0.1 and 0.03 micromolar concentrations. The quantity of relaxed conformation DNA was quantified from an agarose gel on which is it is separated from the super-coiled DNA by standard electrophoresis. […] The results are presented in terms of percent activity of Doxorubicin.

[8] = Serum stability in RPMI1640 medium containing 10% fetal bovine serum; format: in vitro ADME
Description: The stability of conjugates was measured in RPMI1640 cell culture medium containing 10% fetal bovine serum. The serum-containing medium was pre-warmed at 37° C. for 3 min prior to addition of test articles. Test articles, prepared in DMSO as 5 mM stocks, were added to the cell culture media to a final concentration of […]. Aliquots ([…]) were withdrawn in triplicate at 0, 4, 8, 24 and 72 hours and combined with the same volume of ice-cold acetonitrile to terminate the reaction. The mixture was centrifuged at 2,000×g for 10 minutes. One part of the supernatant was mixed with four parts of deionized water to bring down the percentage of organic solvent. The diluted samples were then assayed by LC/MS for the test article. The natural log of the percent remaining was plotted versus time. A linear fit was used to determine the rate constant. The fit was truncated after the percent of remaining test article was less than 10%. The elimination half-lives associated with the disappearance of test articles were determined to compare their relative stability. The assays were carried out by Absorption Systems (Exton, Pa.).

[9] = monolayer, 72 hours, AlamarBlue, read-out: MCF7 (EC50 Ave) ML
[10] = monolayer, 72 hours, AlamarBlue, read-out: HT29 (EC50 Ave) ML
[11] = monolayer, 72 hours, AlamarBlue, read-out: HFF (EC50 Ave) ML
[12] = MCF7, read-out: MCF7 (EC50 Ave) SA
[13] = HT-29, read-out: HT29 (EC50 Ave) SA

T2 sequence (P11388 whole entry): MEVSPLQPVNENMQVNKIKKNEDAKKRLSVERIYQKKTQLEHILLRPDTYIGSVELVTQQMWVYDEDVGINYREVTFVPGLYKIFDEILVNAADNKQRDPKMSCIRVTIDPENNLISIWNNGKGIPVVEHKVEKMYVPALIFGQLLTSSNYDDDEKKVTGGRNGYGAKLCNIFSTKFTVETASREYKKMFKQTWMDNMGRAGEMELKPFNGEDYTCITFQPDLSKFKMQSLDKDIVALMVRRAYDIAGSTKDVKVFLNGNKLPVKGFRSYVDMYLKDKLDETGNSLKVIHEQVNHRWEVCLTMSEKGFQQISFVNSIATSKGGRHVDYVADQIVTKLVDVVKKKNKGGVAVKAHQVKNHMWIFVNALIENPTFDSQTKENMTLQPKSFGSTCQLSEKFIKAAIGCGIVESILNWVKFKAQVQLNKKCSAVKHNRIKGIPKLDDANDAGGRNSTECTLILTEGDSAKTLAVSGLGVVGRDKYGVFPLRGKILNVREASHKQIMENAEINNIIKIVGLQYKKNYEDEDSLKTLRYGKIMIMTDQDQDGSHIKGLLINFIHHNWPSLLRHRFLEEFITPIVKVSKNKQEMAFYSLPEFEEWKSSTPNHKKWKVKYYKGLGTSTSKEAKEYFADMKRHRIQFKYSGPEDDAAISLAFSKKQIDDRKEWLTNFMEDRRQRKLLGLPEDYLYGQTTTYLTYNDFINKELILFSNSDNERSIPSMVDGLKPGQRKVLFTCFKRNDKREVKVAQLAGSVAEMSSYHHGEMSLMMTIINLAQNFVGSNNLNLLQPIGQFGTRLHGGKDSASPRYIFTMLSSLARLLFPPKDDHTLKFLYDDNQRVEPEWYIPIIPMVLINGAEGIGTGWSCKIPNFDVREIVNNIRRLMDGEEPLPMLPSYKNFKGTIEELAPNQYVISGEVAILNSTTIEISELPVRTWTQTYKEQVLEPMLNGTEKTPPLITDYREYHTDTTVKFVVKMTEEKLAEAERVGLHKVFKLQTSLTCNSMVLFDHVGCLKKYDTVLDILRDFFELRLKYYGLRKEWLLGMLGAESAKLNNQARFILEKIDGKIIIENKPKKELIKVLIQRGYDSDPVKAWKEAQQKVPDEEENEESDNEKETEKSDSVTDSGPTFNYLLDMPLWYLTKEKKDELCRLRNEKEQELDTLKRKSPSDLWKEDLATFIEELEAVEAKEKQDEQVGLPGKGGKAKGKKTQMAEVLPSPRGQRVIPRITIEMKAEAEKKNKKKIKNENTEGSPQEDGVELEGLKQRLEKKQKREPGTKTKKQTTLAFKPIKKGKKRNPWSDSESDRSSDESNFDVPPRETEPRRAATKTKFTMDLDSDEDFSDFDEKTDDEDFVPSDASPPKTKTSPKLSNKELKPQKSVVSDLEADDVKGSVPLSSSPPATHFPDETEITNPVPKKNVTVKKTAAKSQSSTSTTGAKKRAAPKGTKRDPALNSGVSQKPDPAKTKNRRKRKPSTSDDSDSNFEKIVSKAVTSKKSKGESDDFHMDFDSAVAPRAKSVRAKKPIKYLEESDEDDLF

| SMILES | Ave. MPA Act (tubulin) | EC50 (MCF-7 breast carcinoma [1]; [9]) | EC50 [2, 10] | EC50 (HUVEC) | EC50 [3, 11] | EC50 (MCF7) | EC50 (HT29) | EC50 (MCF-7 breast carcinoma [4]; [12]) | EC50 [5, 13] | Ave. TK1 Kinase Act. [6] | Ave. MPA Act (doxorubicin) (Topoisomerase II) | also measured |
| --- | --- | --- | --- | --- | --- | --- | --- | --- | --- | --- | --- | --- |
| CC[C@]1(O)CC2CN(CCc3c([nH]c4ccccc34)[C@@](C(=O)OC)(c3cc4c(cc3OC)N(C)[C@H]3C(O)(C(=O)NCCOCCOCCOCCN)[C@H](O)[C@]5(CC)C=CCN6CCC43[C@@H]65)C2)C1 (stereo partly shown) [VBL-3Am-PEG(11)-NH2, deacetylvinblastine-3-(amido-PEG-amine)] | B (B=60-100) | 100 to 1000 nM | 100 to 1000 nM | < 100 nM | < 100 nM | < 100 nM | < 100 nM | < 100 nM | < 100 nM | – | – | – |
| CC[C@]1(O)C[C@@H]2CN(CCc3c([nH]c4ccccc34)[C@@](C(=O)OC)(c3cc4c(cc3OC)N(C)[C@H]3[C@@](O)(C(=O)OC)[C@H](OC(C)=O)[C@]5(CC)C=CCN6CC[C@]43[C@@H]65)C2)C1 [Vinblastine] | C (C>100) | < 100 nM | < 100 nM | – | < 100 nM | < 100 nM | < 100 nM | < 100 nM | < 100 nM | A (A<20) | – | EC50 [7]: 1 to 2 nM |
| COc1cccc2c1C(=O)c1c(O)c3c(c(O)c1C2=O)C[C@@](O)(C(=O)CO)C[C@@H]3OC1CC(NCCCN2C(=O)CC(SCCC(=O)NCCCCCCn3c(=O)c(C)cn([C@H]4CC(O)[C@@H](CO)O4)c3=O)C2=O)C(O)C(C)O1 (stereo partly shown) [DOX-3′ALK-MALa(17)-N3-THY] | – | > 1000 nM | – | > 1000 nM | > 1000 nM | – | – | – | – | A (A<20) | A (A<60) | – |
| COc1cccc2c1C(=O)c1c(O)c3c(c(O)c1C2=O)C[C@@](O)(C(=O)CO)C[C@@H]3O[C@H]1C[C@H](N)[C@H](O)[C@H](C)O1 [Doxorubicin] | – | < 100 nM | 100 to 1000 nM | < 100 nM | < 100 nM | – | – | – | – | A (A<20) | C (C>100) | – |
| CC(=O)O[C@H]1C(=O)C2(C)[C@@H](OC(=O)NCCCCCCn3c(=O)c(C)cn([C@H]4CC(O)[C@@H](CO)O4)c3=O)CC3OC[C@]3(OC(C)=O)[C@H]2[C@H](OC(=O)c2ccccc2)[C@]2(O)C[C@H](OC(=O)[C@H](O)[C@@H](NC(=O)c3ccccc3)c3ccccc3)C(C)=C1C2(C)C (stereo partly shown) [PXL-7Ca-ALK(6)-N3-THY] | B (B=60-100) | < 100 nM | 100 to 1000 nM | 100 to 1000 nM | 100 to 1000 nM | – | – | < 100 nM | 100 to 1000 nM | A (A<20) | – | EC50 (MCF-7 breast carcinoma [1]; mean ± SD, read-out: MCF-7 Monolayer EC50): 120 ± 73 nM; EC50 ([2]; mean ± SD, read-out: HT-29 Monolayer EC50): 258 ± 129 nM; EC50 ([3]; mean ± SD, read-out: HFF Monolayer EC50): 457 ± 310 nM; Relative Percent Remaining at 0 hr ([8]; 37° C., medium with 10% fetal bovine serum, 0 hr): 100%; Relative Percent Remaining at 4 hr ([8]; 37° C., medium with 10% fetal bovine serum, 4 hr): 84%; Relative Percent Remaining at 8 hr ([8]; 37° C., medium with 10% fetal bovine serum, 8 hr): 90%; Relative Percent Remaining at 24 hr ([8]; 37° C., medium with 10% fetal bovine serum, 24 hr): 80%; Relative Percent Remaining at 72 hr ([8]; 37° C., medium with 10% fetal bovine serum, 72 hr): 38%; half-life ([8]; bovine, serum): 55 h; EC50 (MCF-7 breast carcinoma [4]; MCF7, read-out: MCF-7 Soft Agar EC50): 40 ± 41 nM; EC50 ([5]; HT-29, read-out: HT-29 Soft Agar EC50): 120 ± 4 nM |
